This experiment relates to KRAS G12V dependent lung adenocarcinoma cell line, NCI-H441. The experiment in a line: Cellular pERK (Thr202/Tyr204) FRET/HTRF assay. Type of experiment: cell-based. The following applies: Homo sapiens, NCI-H441, cellular pERK (Thr202/Tyr204) HTRF, NCI-H441 cells. The procedure, abridged: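 NCI-H441, overnight plating → cpd 1 hr, 37 °C/5% CO2; DMSO neg ctrl. Lyse (phosphatase inhibitors), add donor/acceptor Abs, RT incubation, HTRF read. IC50 by curve fit.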

As usually defined, the IC50 is the concentration at which inhibition is half-maximal.

`[2H]C([2H])(Oc1nc(N2CCCO[C@H]3[C@H](F)[C@H]32)c2cnc(-c3cc(N)cc4c(F)c(F)c(F)c(C#C)c34)c(F)c2n1)[C@@]12CCCN1C[C@H](F)C2` [Example 115, 5-ethynyl-6,7,8-trifluoro-4-(8-fluoro-4-((1R,7S,8R)-8-fluoro-2-oxa-6-azabicyclo[5.1.0]octan-6-yl)-2-(((2R,7aS)-2-fluorotetrahydro-1H-pyrrolizin-7a(5H)-yl)methoxy-d2)pyrido[4,3-d]pyrimidin-7-yl)naphthalen-2-amine] showed an IC50 below 0.05 µM.

For the compound `[2H]C([2H])(F)Oc1c(F)ccc2cc(N)cc(-c3ncc4c(N5CCOC[C@H]6[C@H](F)[C@H]65)nc(OC([2H])([2H])[C@@]56CCCN5C[C@H](F)C6)nc4c3F)c12` [Example 116, 6-Fluoro-4-(8-fluoro-4-((1S,7S,8S)-8-fluoro-5-oxa-2-azabicyclo[5.1.0]octan-2-yl)-2-(((2R,7aS)-2-fluorotetrahydro-1H-pyrrolizin-7a(5H)-yl)methoxy-d2)pyrido[4,3-d]pyrimidin-7-yl)-5-(fluoromethoxy-d2)naphthalen-2-amine], the IC50 is below 0.05 µM.

In turn, `[2H]C([2H])(Oc1nc(N2CCCO[C@H]3[C@H](F)[C@H]32)c2cnc(-c3cc(N)cc4c(F)cc(F)c(C#C)c34)c(F)c2n1)[C@@]12CCCN1C[C@H](F)C2` [Example 117, 5-ethynyl-6,8-difluoro-4-(8-fluoro-4-((1R,7S,8R)-8-fluoro-2-oxa-6-azabicyclo[5.1.0]octan-6-yl)-2-(((2R,7aS)-2-fluorotetrahydro-1H-pyrrolizin-7a(5H)-yl)methoxy-d2)pyrido[4,3-d]pyrimidin-7-yl)naphthalen-2-amine] came in with an IC50 below 0.05 µM.

The compound `[2H]C([2H])(Oc1nc(N2CCOC[C@@H]3[C@H]2[C@@]3([2H])F)c2cnc(-c3cccc4ccc(F)c(C#C)c34)c(F)c2n1)[C@@]12CCCN1C[C@H](F)C2` [Example 118, (1S,7S,8S)-2-(7-(8-ethynyl-7-fluoronaphthalen-1-yl)-8-fluoro-2-(((2R,7aS)-2-fluorotetrahydro-1H-pyrrolizin-7a(5H)-yl)methoxy-d2)pyrido[4,3-d]pyrimidin-4-yl)-8-fluoro-5-oxa-2-azabicyclo[5.1.0]octane-8-d] displayed a half-maximal inhibitory concentration (IC50) below 0.05 µM.

In the case of `[2H]C([2H])([2H])Oc1c(F)c(F)c(F)c2cc(N)cc(-c3ncc4c(N5CCOC[C@@H]6[C@H]5[C@@]6([2H])F)nc(OC([2H])([2H])[C@@]56CCCN5C[C@H](F)C6)nc4c3F)c12` [Example 119, 6,7,8-trifluoro-4-(8-fluoro-4-((1S,7S,8S)-8-fluoro-5-oxa-2-azabicyclo[5.1.0]octan-2-yl-8-d)-2-(((2R,7aS)-2-fluorotetrahydro-1H-pyrrolizin-7a(5H)-yl)methoxy-d2)pyrido[4,3-d]pyrimidin-7-yl)-5-(methoxy-d3)naphthalen-2-amine], the IC50 is below 0.05 µM.

On to `[2H]C([2H])([2H])Oc1c(F)c(F)c(F)c2cc(N)cc(-c3ncc4c(N5CCOC[C@H]6[C@H](F)[C@H]65)nc(OC[C@]56CC(=C)CN5CCC65CC5)nc4c3F)c12` [Example 120, 6,7,8-trifluoro-4-(8-fluoro-4-((1S,7S,8S)-8-fluoro-5-oxa-2-azabicyclo[5.1.0]octan-2-yl)-2-(((R)-6′-methylenetetrahydrospiro[cyclopropane-1,1′-pyrrolizin]-7a′(5′H)-yl)methoxy)pyrido[4,3-d]pyrimidin-7-yl)-5-(methoxy-d3)naphthalen-2-amine], for which the IC50 was below 0.05 µM.

In the case of `[2H]C([2H])([2H])Oc1c(F)c(F)c(F)c2cc(N)cc(-c3ncc4c(N5CCOC[C@H]6[C@H](F)[C@H]65)nc(OC[C@@]56CC(=C)CN5CCC65CC5)nc4c3F)c12` [Example 121, 6,7,8-trifluoro-4-(8-fluoro-4-((1S,7S,8S)-8-fluoro-5-oxa-2-azabicyclo[5.1.0]octan-2-yl)-2-(((S)-6′-methylenetetrahydrospiro[cyclopropane-1,1′-pyrrolizin]-7a′(5′H)-yl)methoxy)pyrido[4,3-d]pyrimidin-7-yl)-5-(methoxy-d3)naphthalen-2-amine], the 50% inhibitory concentration (IC50) is below 0.05 µM.

Take `[2H]C([2H])(Oc1nc(N2CCOC[C@@H]3[C@H]2[C@@]3([2H])F)c2cnc(-c3cccc4cc(F)c(F)c(C#C)c34)c(F)c2n1)[C@@]12CCCN1C[C@H](F)C2` [Example 122, (1S,7S,8S)-2-(7-(8-ethynyl-6,7-difluoronaphthalen-1-yl)-8-fluoro-2-(((2R,7aS)-2-fluorotetrahydro-1H-pyrrolizin-7a(5H)-yl)methoxy-d2)pyrido[4,3-d]pyrimidin-4-yl)-8-fluoro-5-oxa-2-azabicyclo[5.1.0]octane-8-d]: the 50% inhibitory concentration (IC50) is below 0.05 µM.

The compound `[2H]C([2H])([2H])Oc1c(F)c(F)c(F)c2cccc(-c3ncc4c(N5CCOC[C@H]6[C@H](F)[C@H]65)nc(OC([2H])([2H])[C@@]56CCCN5C[C@H](F)C6)nc4c3F)c12` [Example 123, (1S,7S,8S)-8-fluoro-2-(8-fluoro-2-(((2R,7aS)-2-fluorotetrahydro-1H-pyrrolizin-7a(5H)-yl)methoxy-d2)-7-(5,6,7-trifluoro-8-(methoxy-d3)naphthalen-1-yl)pyrido[4,3-d]pyrimidin-4-yl)-5-oxa-2-azabicyclo[5.1.0]octane] came in with an IC50 of 0.05 to 0.5 µM.

Consider `[2H]C([2H])([2H])Oc1c(F)c(F)c(F)c2cc(N)cc(-c3ncc4c(N5CCOC([2H])([2H])[C@H]6[C@H](F)[C@H]65)nc(OC([2H])([2H])[C@@]56CCCN5C[C@H](F)C6)nc4c3F)c12` [Example 124, 6,7,8-trifluoro-4-(8-fluoro-4-((1S,7S,8S)-8-fluoro-5-oxa-2-azabicyclo[5.1.0]octan-2-yl-6,6-d2)-2-(((2R,7aS)-2-fluorotetrahydro-1H-pyrrolizin-7a(5H)-yl)methoxy-d2)pyrido[4,3-d]pyrimidin-7-yl)-5-(methoxy-d3)naphthalen-2-amine], for which the IC50 was below 0.05 µM.

Turning to `[2H]C([2H])([2H])Oc1c(F)c(F)c(F)c2cc(N)cc(-c3ncc4c(N5CCOC[C@H]6[C@H](F)[C@H]65)nc(OC[C@@]56CCCN5CC(=C)C6)nc4c3F)c12` [Example 125, 6,7,8-trifluoro-4-(8-fluoro-4-((1S,7S,8S)-8-fluoro-5-oxa-2-azabicyclo[5.1.0]octan-2-yl)-2-(((S)-2-methylenetetrahydro-1H-pyrrolizin-7a(5H)-yl)methoxy)pyrido[4,3-d]pyrimidin-7-yl)-5-(methoxy-d3)naphthalen-2-amine], the half-maximal inhibitory concentration (IC50) is below 0.05 µM.

`[2H]C([2H])(Oc1nc(N2CCOC[C@H]3[C@H](F)[C@H]32)c2cnc(-c3cncc4ccc(F)c(OCF)c34)c(F)c2n1)[C@@]12CCCN1C[C@H](F)C2` [Example 126, (1S,7S,8S)-8-Fluoro-2-(8-fluoro-7-(6-fluoro-5-(fluoromethoxy)isoquinolin-4-yl)-2-(((2R,7aS)-2-fluorotetrahydro-1H-pyrrolizin-7a(5H)-yl)methoxy-d2)pyrido[4,3-d]pyrimidin-4-yl)-5-oxa-2-azabicyclo[5.1.0]octane] displayed an IC50 below 0.05 µM.

The compound `[2H]C([2H])(F)Oc1c(F)ccc2cncc(-c3ncc4c(N5CCOC[C@H]6[C@H](F)[C@H]65)nc(OC([2H])([2H])[C@@]56CCCN5C[C@H](F)C6)nc4c3F)c12` [Example 127, (1S,7S,8S)-8-Fluoro-2-(8-fluoro-7-(6-fluoro-5-(fluoromethoxy-d2)isoquinolin-4-yl)-2-(((2R,7aS)-2-fluorotetrahydro-1H-pyrrolizin-7a(5H)-yl)methoxy-d2)pyrido[4,3-d]pyrimidin-4-yl)-5-oxa-2-azabicyclo[5.1.0]octane] registered a 50% inhibitory concentration (IC50) of 0.5 to 10 µM.

Take `[2H]C([2H])(F)Oc1c(F)c(F)c(F)c2cc(N)cc(-c3ncc4c(N5CCOC[C@H]6[C@H](F)[C@H]65)nc(OC([2H])([2H])[C@@]56CCCN5C[C@H](F)C6)nc4c3F)c12` [Example 128, 6,7,8-trifluoro-4-(8-fluoro-4-((1S,7S,8S)-8-fluoro-5-oxa-2-azabicyclo[5.1.0]octan-2-yl)-2-(((2R,7aS)-2-fluorotetrahydro-1H-pyrrolizin-7a(5H)-yl)methoxy-d2)pyrido[4,3-d]pyrimidin-7-yl)-5-(fluoromethoxy-d2)naphthalen-2-amine]: the IC50 is below 0.05 µM.

`C#Cc1c(F)ccc2cccc(-c3ncc4c(N5CCOC[C@H]6[C@H](F)[C@H]65)nc(OC[C@@]56CCCN5C/C(=C/F)C6)nc4c3F)c12` [Example 129, (1S,7S,8S)-2-(7-(8-Ethynyl-7-fluoronaphthalen-1-yl)-8-fluoro-2-(((S,E)-2-(fluoromethylene)tetrahydro-1H-pyrrolizin-7a(5H)-yl)methoxy)pyrido[4,3-d]pyrimidin-4-yl)-8-fluoro-5-oxa-2-azabicyclo[5.1.0]octane] showed an IC50 below 0.05 µM.

On to `C#Cc1c(F)ccc2cccc(-c3ncc4c(N5CCOC[C@H]6[C@H](F)[C@H]65)nc(OC[C@@]56CCCN5C/C(=C\F)C6)nc4c3F)c12` [Example 130, (1S,7S,8S)-2-(7-(8-Ethynyl-7-fluoronaphthalen-1-yl)-8-fluoro-2-(((S,Z)-2-(fluoromethylene)tetrahydro-1H-pyrrolizin-7a(5H)-yl)methoxy)pyrido[4,3-d]pyrimidin-4-yl)-8-fluoro-5-oxa-2-azabicyclo[5.1.0]octane], for which the IC50 is below 0.05 µM.

`[2H]C([2H])([2H])Oc1c(F)cc(F)c2cc(N)cc(-c3ncc4c(N5CCOC[C@H]6[C@H](F)[C@H]65)nc(OC([2H])([2H])[C@@]56CCCN5C[C@H](F)C6)nc4c3F)c12` [Example 131, 6,8-difluoro-4-(8-fluoro-4-((1S,7S,8S)-8-fluoro-5-oxa-2-azabicyclo[5.1.0]octan-2-yl)-2-(((2R,7aS)-2-fluorotetrahydro-1H-pyrrolizin-7a(5H)-yl)methoxy-d2)pyrido[4,3-d]pyrimidin-7-yl)-5-(methoxy-d3)naphthalen-2-amine] showed an IC50 below 0.05 µM.

(Values after patent US20250282799A1, “SUBSTITUTED PYRIDO[4,3-d]PYRIMIDINES AS KRAS MODULATORS” (Alterome Therapeutics, Inc., priority 2023, published 2025).)
